Measured values as given in patent publication US12492188B2, “1H-benzo[D]imidazole derivatives as TLR9 inhibitors for the treatment of fibrosis” (BRISTOL-MYERS SQUIBB COMPANY, priority 2020, dated 2025).
Read-outs that look alike come from different tables or passages of the source.

Experiments:
Type in all cases: cell-based
human TLR9 = molecular target: T1, human TLR9 (Homo sapiens, UniProt Q9NR96); assay: TLR9 inhibition reporter assay (HEK-Blue cells, secreted embryonic alkaline phosphatase reporter)
T1 construct: host or cells: HEK-Blue cells (HEK293-derived reporter line)
T1 sequence (Q9NR96 26-1032): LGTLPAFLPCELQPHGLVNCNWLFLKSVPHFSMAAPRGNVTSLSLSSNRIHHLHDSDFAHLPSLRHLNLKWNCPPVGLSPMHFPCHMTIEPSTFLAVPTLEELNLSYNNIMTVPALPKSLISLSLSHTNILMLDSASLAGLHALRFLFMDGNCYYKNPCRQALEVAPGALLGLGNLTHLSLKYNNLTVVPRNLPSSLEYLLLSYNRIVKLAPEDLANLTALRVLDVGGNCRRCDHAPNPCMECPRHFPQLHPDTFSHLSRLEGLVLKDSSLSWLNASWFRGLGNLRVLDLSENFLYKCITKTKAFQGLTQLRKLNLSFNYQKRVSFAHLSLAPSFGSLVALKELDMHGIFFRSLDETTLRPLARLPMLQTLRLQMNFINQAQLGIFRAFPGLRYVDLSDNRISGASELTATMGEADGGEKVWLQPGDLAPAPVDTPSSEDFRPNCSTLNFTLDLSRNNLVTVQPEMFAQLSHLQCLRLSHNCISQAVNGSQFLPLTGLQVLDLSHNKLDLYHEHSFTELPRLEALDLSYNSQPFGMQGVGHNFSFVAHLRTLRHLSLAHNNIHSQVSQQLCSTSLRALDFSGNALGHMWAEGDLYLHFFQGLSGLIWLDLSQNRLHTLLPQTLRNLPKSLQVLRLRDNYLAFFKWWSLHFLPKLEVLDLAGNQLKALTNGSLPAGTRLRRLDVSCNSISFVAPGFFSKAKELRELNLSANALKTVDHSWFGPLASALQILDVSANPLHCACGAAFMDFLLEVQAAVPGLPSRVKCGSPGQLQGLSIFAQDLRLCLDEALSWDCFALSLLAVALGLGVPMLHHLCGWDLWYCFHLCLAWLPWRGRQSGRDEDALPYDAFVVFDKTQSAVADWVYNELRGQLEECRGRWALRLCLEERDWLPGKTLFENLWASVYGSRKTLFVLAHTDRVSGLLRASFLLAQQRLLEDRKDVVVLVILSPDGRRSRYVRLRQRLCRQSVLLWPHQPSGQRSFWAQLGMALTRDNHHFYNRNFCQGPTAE
Procedure, shortened: (§1)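 Steps: seed receptor-specific HEK-Blue cells; add compound, 0.05 nM–50 μM; wait 30 min at room temperature; add final gardiquimod 7.5 μM, R848 15.9 μM or ODN2006 5 nM for TLR7, TLR8 or TLR9; incubate 22 h at 37 °C; detect NF-κB/AP-1-driven SEAP.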

human TLR7 = molecular target: T2, human TLR7 (Homo sapiens, UniProt Q9NYK1); assay: TLR7 inhibition reporter assay (HEK-Blue cells, secreted embryonic alkaline phosphatase reporter); details: HEK-Blue cells overexpressing human TLR7, stimulated with gardiquimod 7.5 μM; read-out: TLR 7 IC50
T2 construct: host or cells: HEK-Blue cells (HEK293-derived reporter line)
T2 sequence (Q9NYK1 27-1049): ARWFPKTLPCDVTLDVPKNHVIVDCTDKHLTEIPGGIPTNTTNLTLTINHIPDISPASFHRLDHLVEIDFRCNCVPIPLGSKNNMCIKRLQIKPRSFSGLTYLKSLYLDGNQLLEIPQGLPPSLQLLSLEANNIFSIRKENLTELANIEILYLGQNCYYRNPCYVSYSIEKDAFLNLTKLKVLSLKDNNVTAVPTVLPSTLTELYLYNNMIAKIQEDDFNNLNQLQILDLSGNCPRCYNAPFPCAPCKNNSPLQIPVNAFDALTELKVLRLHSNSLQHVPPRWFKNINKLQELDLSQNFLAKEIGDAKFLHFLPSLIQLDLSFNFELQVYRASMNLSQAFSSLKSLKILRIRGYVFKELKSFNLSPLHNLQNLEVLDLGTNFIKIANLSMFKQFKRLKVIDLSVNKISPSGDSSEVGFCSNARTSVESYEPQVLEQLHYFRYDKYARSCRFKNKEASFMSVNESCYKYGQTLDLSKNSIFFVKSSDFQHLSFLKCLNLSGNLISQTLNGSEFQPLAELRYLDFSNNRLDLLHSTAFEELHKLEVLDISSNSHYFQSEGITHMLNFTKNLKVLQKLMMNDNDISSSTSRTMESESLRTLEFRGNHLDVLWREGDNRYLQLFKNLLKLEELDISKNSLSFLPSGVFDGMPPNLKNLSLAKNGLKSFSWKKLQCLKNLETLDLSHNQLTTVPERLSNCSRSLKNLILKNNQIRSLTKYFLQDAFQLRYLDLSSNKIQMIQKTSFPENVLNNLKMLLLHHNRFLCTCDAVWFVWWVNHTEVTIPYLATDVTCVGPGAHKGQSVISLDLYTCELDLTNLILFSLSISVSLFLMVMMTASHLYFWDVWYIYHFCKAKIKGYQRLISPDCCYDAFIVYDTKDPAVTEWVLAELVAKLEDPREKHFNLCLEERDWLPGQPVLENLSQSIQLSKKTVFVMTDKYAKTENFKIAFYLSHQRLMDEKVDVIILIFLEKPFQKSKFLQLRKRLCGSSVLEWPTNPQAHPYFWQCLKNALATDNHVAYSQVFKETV
Procedure, shortened: as §1

human TLR8 = molecular target: T3, human TLR8 (Homo sapiens, UniProt Q9NR97); assay: TLR8 inhibition reporter assay (HEK-Blue cells, secreted embryonic alkaline phosphatase reporter); details: HEK-Blue cells overexpressing human TLR8, stimulated with R848 15.9 μM; read-out: TLR 8 IC50
T3 construct: host or cells: HEK-Blue cells (HEK293-derived reporter line)
T3 sequence (Q9NR97 27-1041): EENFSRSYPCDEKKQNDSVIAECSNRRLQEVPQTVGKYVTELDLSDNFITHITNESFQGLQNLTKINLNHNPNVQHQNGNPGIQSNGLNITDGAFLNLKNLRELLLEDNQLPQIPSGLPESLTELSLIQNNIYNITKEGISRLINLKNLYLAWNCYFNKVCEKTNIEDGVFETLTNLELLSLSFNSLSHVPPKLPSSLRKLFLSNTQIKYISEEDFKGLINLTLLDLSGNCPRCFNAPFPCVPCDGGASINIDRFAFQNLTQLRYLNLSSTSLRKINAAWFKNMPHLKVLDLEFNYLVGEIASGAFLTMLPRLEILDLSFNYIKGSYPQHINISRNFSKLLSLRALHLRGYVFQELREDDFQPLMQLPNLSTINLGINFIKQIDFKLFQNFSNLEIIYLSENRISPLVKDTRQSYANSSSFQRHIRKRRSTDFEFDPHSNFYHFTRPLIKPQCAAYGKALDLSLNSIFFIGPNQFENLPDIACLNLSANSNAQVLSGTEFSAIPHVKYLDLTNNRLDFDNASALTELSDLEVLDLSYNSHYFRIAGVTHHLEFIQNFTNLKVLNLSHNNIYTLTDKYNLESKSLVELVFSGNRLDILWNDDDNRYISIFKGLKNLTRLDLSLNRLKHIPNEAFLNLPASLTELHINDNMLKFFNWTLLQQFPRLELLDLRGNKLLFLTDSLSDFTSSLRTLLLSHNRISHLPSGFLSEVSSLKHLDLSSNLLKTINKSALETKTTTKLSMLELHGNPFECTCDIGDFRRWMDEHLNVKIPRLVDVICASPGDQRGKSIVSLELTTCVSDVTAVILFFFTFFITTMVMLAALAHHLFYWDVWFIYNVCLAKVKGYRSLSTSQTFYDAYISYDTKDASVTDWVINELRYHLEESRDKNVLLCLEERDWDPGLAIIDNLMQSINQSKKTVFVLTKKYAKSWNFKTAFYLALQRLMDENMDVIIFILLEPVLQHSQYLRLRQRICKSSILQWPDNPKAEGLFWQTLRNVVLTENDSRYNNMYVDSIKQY
Procedure, shortened: as §1

[1] = HEK-Blue cells overexpressing human TLR9, stimulated with ODN2006 5 nM, read-out: TLR 9 IC50

| SMILES | IC50 (human TLR9) [nM] | IC50 (human TLR9; [1]) [nM] | IC50 (human TLR7) [nM] | IC50 (human TLR8) [nM] |
| --- | --- | --- | --- | --- |
| COCCN1C2CCC1CC(N1CCC(c3cc4c(cc3F)nc(-c3ccc(S(C)(=O)=O)cc3)n4C)CC1)C2 (single isomer, unassigned) [Example 238, 5-fluoro-6-(1-(8-(2-methoxyethyl)-8-azabicyclo[3.2.1]octan-3-yl)piperidin-4-yl)-1-methyl-2-(4-(methylsulfonyl)phenyl)-1H-benzo[d]imidazole] | 58 | 58 | 34600 | > 50000 |
| COCCN1C2CCC1CC(N1CCC(c3cc4c(cc3F)nc(-c3ccc(S(C)(=O)=O)cc3)n4C)CC1)C2 (single isomer, unassigned) [Example 239, 5-fluoro-6-(1-(8-(2-methoxyethyl)-8-azabicyclo[3.2.1]octan-3-yl)piperidin-4-yl)-1-methyl-2-(4-(methylsulfonyl)phenyl)-1H-benzo[d]imidazole] | 290 | 290 | ≥ 51200 | > 50000 |
| Cn1c(-c2ccc(S(C)(=O)=O)cc2)nc2cc(C3CCN(C4CC5CCC(C4)N5CC4CC4)CC3)c(F)cc21 (single isomer, unassigned) [Example 249, 5-(1-(8-(cyclopropylmethyl)-8-azabicyclo[3.2.1]octan-3-yl)piperidin-4-yl)-6-fluoro-1-methyl-2-(4-(methylsulfonyl)phenyl)-1H-benzo[d]imidazole] | 32 | 32 | 21500 | > 50000 |
| Cn1c(-c2ccc(S(C)(=O)=O)cc2)nc2cc(C3CCN(C4CC5CCC(C4)N5CC4CC4)CC3)c(F)cc21 (single isomer, unassigned) [Example 250, 5-(1-(8-(cyclopropylmethyl)-8-azabicyclo[3.2.1]octan-3-yl)piperidin-4-yl)-6-fluoro-1-methyl-2-(4-(methylsulfonyl)phenyl)-1H-benzo[d]imidazole] | 110 | 110 | 36700 | > 50000 |
| Cn1c(-c2ccc(S(C)(=O)=O)cc2)nc2cc(C3CCN(C4CC5CCC(C4)N5C4COC4)CC3)c(F)cc21 (single isomer, unassigned) [Example 253, 6-fluoro-1-methyl-2-(4-(methylsulfonyl)phenyl)-5-(1-(8-(oxetan-3-yl)-8-azabicyclo[3.2.1]octan-3-yl)piperidin-4-yl)-1H-benzo[d]imidazole] | 280 | 278 | > 50000 | > 50000 |
| Cn1c(-c2ccc(S(C)(=O)=O)cc2)nc2cc(C3CCN(C4CC5CCC(C4)N5C4COC4)CC3)c(F)cc21 (single isomer, unassigned) [Example 254, 6-fluoro-1-methyl-2-(4-(methylsulfonyl)phenyl)-5-(1-(8-(oxetan-3-yl)-8-azabicyclo[3.2.1]octan-3-yl)piperidin-4-yl)-1H-benzo[d]imidazole] | 5300 | 5310 | > 50000 | > 50000 |
| Cn1c(-c2ccc(S(C)(=O)=O)cc2)nc2cc(C3CCN(C4CC5CCC(C4)N5C4CCOCC4)CC3)c(F)cc21 (single isomer, unassigned) [Example 255, 6-fluoro-1-methyl-2-(4-(methylsulfonyl)phenyl)-5-(1-(8-(tetrahydro-2H-pyran-4-yl)-8-azabicyclo[3.2.1]octan-3-yl)piperidin-4-yl)-1H-benzo[d]imidazole] | 72 | 72 | > 50000 | > 50000 |
| Cn1c(-c2ccc(S(C)(=O)=O)cc2)nc2cc(C3CCN(C4CC5CCC(C4)N5C4CCOCC4)CC3)c(F)cc21 (single isomer, unassigned) [Example 256, 6-fluoro-1-methyl-2-(4-(methylsulfonyl)phenyl)-5-(1-(8-(tetrahydro-2H-pyran-4-yl)-8-azabicyclo[3.2.1]octan-3-yl)piperidin-4-yl)-1H-benzo[d]imidazole] | 320 | 315 | 17600 | > 50000 |
| CC(C)CN1C2CCC1CC(N1CCC(c3ccc4nc(-c5ccc(S(C)(=O)=O)cc5)n(C)c4c3F)CC1)C2 (single isomer, unassigned) [Example 266, 7-fluoro-6-(1-(8-isobutyl-8-azabicyclo[3.2.1]octan-3-yl)piperidin-4-yl)-1-methyl-2-(4-(methylsulfonyl)phenyl)-1H-benzo[d]imidazole] | 97 | 97 | 18600 | > 50000 |
| CC(C)CN1C2CCC1CC(N1CCC(c3ccc4nc(-c5ccc(S(C)(=O)=O)cc5)n(C)c4c3F)CC1)C2 (single isomer, unassigned) [Example 267, 7-fluoro-6-(1-(8-isobutyl-8-azabicyclo[3.2.1]octan-3-yl)piperidin-4-yl)-1-methyl-2-(4-(methylsulfonyl)phenyl)-1H-benzo[d]imidazole] | 350 | 347 | > 50000 | > 50000 |
